The NIST ThermoML archive (doi:10.1016/j.jct.2011.12.008)
± gives the expanded uncertainty stated by the source.

Key:
[1] = xn = mol fraction of the nth substance listed; conditions: 101 kPa, Liquid; for viscosity: Capillary tube (Ostwald / Ubbelohde) method; for mass density: Vibrating tube method
[2] = 101.33 kPa, Liquid; for viscosity: Capillary tube (Ostwald / Ubbelohde) method; for mass density: Vibrating tube method

Structure (SMILES): CCCCCCn1cc[n+](C)c1.F[B-](F)(F)F [1-hexyl-3-methylimidazolium tetrafluoroborate] + NCCCO
- viscosity ([1]; 293.15 K, x1 = 1): 234.68 ± 11 mPa·s
- mass density ([1]; 293.15 K, x1 = 1): 1149.05 ± 1.1 kg/m3
- viscosity ([1]; 298.15 K, x1 = 1): 178.92 ± 8.4 mPa·s
- mass density ([1]; 298.15 K, x1 = 1): 1145.61 ± 1.1 kg/m3
- viscosity ([1]; 303.15 K, x1 = 1): 136.15 ± 6.2 mPa·s
- mass density ([1]; 303.15 K, x1 = 1): 1142.3 ± 1.1 kg/m3
- viscosity ([1]; 308.15 K, x1 = 1): 106.65 ± 4.7 mPa·s
- mass density ([1]; 308.15 K, x1 = 1): 1138.95 ± 1.1 kg/m3
- viscosity ([1]; 313.15 K, x1 = 1): 83.13 ± 3.6 mPa·s
- mass density ([1]; 313.15 K, x1 = 1): 1135.59 ± 1.1 kg/m3
- viscosity ([1]; 318.15 K, x1 = 1): 69.13 ± 2.9 mPa·s
- mass density ([1]; 318.15 K, x1 = 1): 1132.22 ± 1.1 kg/m3
- viscosity ([1]; 323.15 K, x1 = 1): 56.74 ± 2.4 mPa·s
- mass density ([1]; 323.15 K, x1 = 1): 1128.88 ± 1.1 kg/m3
- viscosity ([1]; 328.15 K, x1 = 1): 48.36 ± 2 mPa·s
- mass density ([1]; 328.15 K, x1 = 1): 1125.5 ± 1.1 kg/m3
- viscosity ([1]; 333.15 K, x1 = 1): 43.01 ± 1.8 mPa·s
- mass density ([1]; 333.15 K, x1 = 1): 1122.14 ± 1.1 kg/m3
- viscosity ([1]; 338.15 K, x1 = 1): 37.15 ± 1.6 mPa·s
- mass density ([1]; 338.15 K, x1 = 1): 1118.8 ± 1.1 kg/m3

Structure (SMILES): NCCCO [3-amino-1-propanol]
- viscosity ([2]; 293.15 K): 39.29 ± 1.6 mPa·s
- mass density ([2]; 293.15 K): 987.55 ± 0.23 kg/m3
- viscosity ([2]; 298.15 K): 30.43 ± 1.3 mPa·s
- mass density ([2]; 298.15 K): 983.55 ± 0.23 kg/m3
- viscosity ([2]; 303.15 K): 23.87 ± 0.99 mPa·s
- mass density ([2]; 303.15 K): 979.53 ± 0.23 kg/m3
- viscosity ([2]; 308.15 K): 19.07 ± 0.79 mPa·s
- mass density ([2]; 308.15 K): 975.51 ± 0.23 kg/m3
- viscosity ([2]; 313.15 K): 15.27 ± 0.63 mPa·s
- mass density ([2]; 313.15 K): 971.47 ± 0.23 kg/m3
- viscosity ([2]; 318.15 K): 12.35 ± 0.51 mPa·s
- mass density ([2]; 318.15 K): 967.43 ± 0.23 kg/m3
- viscosity ([2]; 323.15 K): 10.22 ± 0.42 mPa·s
- mass density ([2]; 323.15 K): 963.37 ± 0.23 kg/m3
- viscosity ([2]; 328.15 K): 8.535 ± 0.35 mPa·s
- mass density ([2]; 328.15 K): 959.3 ± 0.23 kg/m3
- viscosity ([2]; 333.15 K): 7.123 ± 0.29 mPa·s
- mass density ([2]; 333.15 K): 955.22 ± 0.23 kg/m3
- viscosity ([2]; 338.15 K): 6.045 ± 0.25 mPa·s
- mass density ([2]; 338.15 K): 951.14 ± 0.23 kg/m3

Structure (SMILES): CCCCCCn1cc[n+](C)c1.F[B-](F)(F)F [1-hexyl-3-methylimidazolium tetrafluoroborate]
- viscosity ([2]; 293.15 K): 234.68 ± 11 mPa·s
- mass density ([2]; 293.15 K): 1149.05 ± 1.2 kg/m3
- viscosity ([2]; 298.15 K): 178.92 ± 8.4 mPa·s
- mass density ([2]; 298.15 K): 1145.61 ± 1.1 kg/m3
- viscosity ([2]; 303.15 K): 136.15 ± 6.2 mPa·s
- mass density ([2]; 303.15 K): 1142.3 ± 1.1 kg/m3
- viscosity ([2]; 308.15 K): 106.65 ± 4.7 mPa·s
- mass density ([2]; 308.15 K): 1138.95 ± 1.1 kg/m3
- viscosity ([2]; 313.15 K): 83.13 ± 3.6 mPa·s
- mass density ([2]; 313.15 K): 1135.59 ± 1.1 kg/m3
- viscosity ([2]; 318.15 K): 69.13 ± 2.9 mPa·s
- mass density ([2]; 318.15 K): 1132.22 ± 1.1 kg/m3
- viscosity ([2]; 323.15 K): 56.74 ± 2.4 mPa·s
- mass density ([2]; 323.15 K): 1128.88 ± 1.1 kg/m3
- viscosity ([2]; 328.15 K): 48.36 ± 2 mPa·s
- mass density ([2]; 328.15 K): 1125.5 ± 1.1 kg/m3
- viscosity ([2]; 333.15 K): 43.01 ± 1.8 mPa·s
- mass density ([2]; 333.15 K): 1122.14 ± 1.1 kg/m3
- viscosity ([2]; 338.15 K): 37.15 ± 1.6 mPa·s
- mass density ([2]; 338.15 K): 1118.8 ± 1.1 kg/m3

Structure (SMILES): CC(C)CO [2-methyl-1-propanol] + CCCCCCn1cc[n+](C)c1.F[B-](F)(F)F
- viscosity ([1]; 293.15 K, x2 = 0): 4.085 ± 0.17 mPa·s
- mass density ([1]; 293.15 K, x2 = 0): 801.75 ± 0.24 kg/m3
- viscosity ([1]; 298.15 K, x2 = 0): 3.45 ± 0.14 mPa·s
- mass density ([1]; 298.15 K, x2 = 0): 797.89 ± 0.24 kg/m3
- viscosity ([1]; 303.15 K, x2 = 0): 2.877 ± 0.12 mPa·s
- mass density ([1]; 303.15 K, x2 = 0): 793.99 ± 0.24 kg/m3
- viscosity ([1]; 308.15 K, x2 = 0): 2.385 ± 0.098 mPa·s
- mass density ([1]; 308.15 K, x2 = 0): 790.04 ± 0.24 kg/m3
- viscosity ([1]; 313.15 K, x2 = 0): 2.091 ± 0.086 mPa·s
- mass density ([1]; 313.15 K, x2 = 0): 786.04 ± 0.24 kg/m3
- viscosity ([1]; 318.15 K, x2 = 0): 1.85 ± 0.076 mPa·s
- mass density ([1]; 318.15 K, x2 = 0): 781.98 ± 0.24 kg/m3
- viscosity ([1]; 323.15 K, x2 = 0): 1.576 ± 0.065 mPa·s
- mass density ([1]; 323.15 K, x2 = 0): 777.85 ± 0.24 kg/m3
- viscosity ([1]; 328.15 K, x2 = 0): 1.297 ± 0.053 mPa·s
- mass density ([1]; 328.15 K, x2 = 0): 773.65 ± 0.24 kg/m3
- viscosity ([1]; 333.15 K, x2 = 0): 1.124 ± 0.046 mPa·s
- mass density ([1]; 333.15 K, x2 = 0): 769.36 ± 0.24 kg/m3
- viscosity ([1]; 338.15 K, x2 = 0): 0.9876 ± 0.041 mPa·s
- mass density ([1]; 338.15 K, x2 = 0): 764.99 ± 0.24 kg/m3

Structure (SMILES): CC(C)CO [2-methyl-1-propanol]
- viscosity ([2]; 293.15 K): 4.085 ± 0.17 mPa·s
- mass density ([2]; 293.15 K): 801.75 ± 0.24 kg/m3
- viscosity ([2]; 298.15 K): 3.45 ± 0.14 mPa·s
- mass density ([2]; 298.15 K): 797.89 ± 0.24 kg/m3
- viscosity ([2]; 303.15 K): 2.877 ± 0.12 mPa·s
- mass density ([2]; 303.15 K): 793.99 ± 0.24 kg/m3
- viscosity ([2]; 308.15 K): 2.385 ± 0.098 mPa·s
- mass density ([2]; 308.15 K): 790.04 ± 0.24 kg/m3
- viscosity ([2]; 313.15 K): 2.091 ± 0.086 mPa·s
- mass density ([2]; 313.15 K): 786.04 ± 0.24 kg/m3
- viscosity ([2]; 318.15 K): 1.85 ± 0.076 mPa·s
- mass density ([2]; 318.15 K): 781.98 ± 0.24 kg/m3
- viscosity ([2]; 323.15 K): 1.576 ± 0.065 mPa·s
- mass density ([2]; 323.15 K): 777.85 ± 0.24 kg/m3
- viscosity ([2]; 328.15 K): 1.297 ± 0.053 mPa·s
- mass density ([2]; 328.15 K): 773.65 ± 0.24 kg/m3
- viscosity ([2]; 333.15 K): 1.124 ± 0.046 mPa·s
- mass density ([2]; 333.15 K): 769.36 ± 0.24 kg/m3
- viscosity ([2]; 338.15 K): 0.9876 ± 0.041 mPa·s
- mass density ([2]; 338.15 K): 764.99 ± 0.24 kg/m3
